In this assay the target is T1, D39G/R84G mutant EAG1 channels (Mus musculus, UniProt Q60603, D39G/R84G).
T1 construct: expressed in transfected cells; host or cells: Xenopus laevis oocytes injected with cRNA
T1 sequence (Q60603 1-989 D39G/R84G): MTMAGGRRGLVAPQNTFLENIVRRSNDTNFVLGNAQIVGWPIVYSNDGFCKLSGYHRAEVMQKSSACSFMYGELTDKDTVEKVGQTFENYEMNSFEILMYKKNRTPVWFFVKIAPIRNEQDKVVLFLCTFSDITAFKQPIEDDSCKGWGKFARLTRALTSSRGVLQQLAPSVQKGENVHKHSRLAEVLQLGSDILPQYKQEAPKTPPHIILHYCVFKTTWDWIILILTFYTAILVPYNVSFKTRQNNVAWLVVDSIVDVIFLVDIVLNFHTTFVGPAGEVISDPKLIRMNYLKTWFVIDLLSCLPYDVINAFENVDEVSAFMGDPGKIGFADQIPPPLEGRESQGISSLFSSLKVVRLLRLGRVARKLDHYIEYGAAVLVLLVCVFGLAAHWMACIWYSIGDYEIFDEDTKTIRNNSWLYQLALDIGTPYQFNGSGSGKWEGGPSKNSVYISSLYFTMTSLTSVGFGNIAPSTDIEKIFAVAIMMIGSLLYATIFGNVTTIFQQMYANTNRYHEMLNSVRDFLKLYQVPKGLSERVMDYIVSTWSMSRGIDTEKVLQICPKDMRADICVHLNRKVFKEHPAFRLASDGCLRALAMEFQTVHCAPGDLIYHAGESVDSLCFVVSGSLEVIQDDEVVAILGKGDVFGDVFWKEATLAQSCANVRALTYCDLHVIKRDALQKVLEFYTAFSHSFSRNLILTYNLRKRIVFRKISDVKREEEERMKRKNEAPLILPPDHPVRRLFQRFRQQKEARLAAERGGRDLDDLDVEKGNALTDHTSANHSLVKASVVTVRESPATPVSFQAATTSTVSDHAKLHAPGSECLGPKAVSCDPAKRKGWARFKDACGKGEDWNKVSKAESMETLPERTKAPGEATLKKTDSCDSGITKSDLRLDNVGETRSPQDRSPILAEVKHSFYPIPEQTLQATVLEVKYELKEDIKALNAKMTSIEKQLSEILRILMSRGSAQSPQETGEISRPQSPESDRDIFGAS
In words: TEVC recording, imipramine inhibition, D39G/R84G double mutant. The format is cell-based. The following applies: D39G/R84G mutant EAG1 channel, +50 mV. An excerpt: The cDNA encoding wild-type (WT) mouse EAG1 channels in pGH19 vector was kindly provided by G. Robertson (University of Wisconsin-Madison, Madison, WI). The mutant ΔPAS EAG1 channel in pGH19 with the deletion of the PAS domain residues 2 to 130 was generated by Bio Basic Inc and verified by DNA sequencing (Genewiz). Mutant EAG1 channels with single amino acid substitutions were generated by Genewiz and verified by DNA sequencing. cRNA was transcribed using the T7 mMessage mMachine kit (Thermo Fisher Scientific). Defolliculated Xenopus laevis oocytes were purchased from Ecocyte Bioscience or Xenopus1 and injected with the cRNA using a Nanoinject II oocyte injector (Drummond).
For EAG1 current recordings, oocytes were placed into a handmade chamber containing a bath solution for the current recording. The currents were recorded using a TEVC technique with OC-725C amplifier (Warner Instruments) and pClamp11 software (Molecular Devices). The signals were digitized using Digidata 1550 (Molecular Devices). Patch pipettes were pulled from borosilicate glass and had resistances of 0.7 to 1.5 MΩ. The recording (bath) solution contained 96 mM NaCl, 4 mM KCl, 0.1 mM CaCl2, 1.8 mM MgCl2, and 5 mM HEPES, pH 7.5. The pipette solution contained 3 M KCl. […]

For orientation: IC50 means the concentration at which inhibition is half-maximal. Low readings indicate higher potency, high ones lower potency. Consider `CN(C)CCCN1c2ccccc2CCc2ccccc21` [imipramine], for which the IC50 turned out to be 142 ± 28.5 µM.

The record behind these values is publication PMC10687071 (The Journal of Biological Chemistry, 2023).
